Data published in paper PMC7911516, “Investigation of the Factors Responsible for the Poor Oral Bioavailability of Acacetin in Rats: Physicochemical and Biopharmaceutical Aspects” (Pharmaceutics, 2021).

Key:
[1] = Distribution coefficients in octanol–water system; type: physicochemical; settings: 25 °C
Description: Simulated gastric fluid (SGF) consisted of 0.2% (w/v) sodium chloride, 0.32% (w/v) pepsin, and 0.7% (v/v) HCl (final pH = 1.2). Simulated intestinal fluid (SIF) was prepared by dissolving 3 mM sodium taurocholate and 0.1% (w/v) pancreatin in phosphate buffer (final pH = 7.0). The solubility of acacetin was measured by adding excessive amounts of acacetin into glass vials containing 1.5 mL of water, pH 7.4 phosphate buffer, SGF, and SIF. The mixtures were allowed to reach equilibrium in a shaking incubator (FINEPCR, Gyeonggi-do, South Korea) at 500 rpm at 37 °C for 48 h. The samples were centrifuged at 16,000× g for 5 min, and the supernatant was passed through a 0.20-μm syringe filter to remove excess acacetin. Further, the concentration of acacetin in the filtrate was determined using the LC-MS/MS method. The distribution coefficients of acacetin in water (log P) and pH 7.4 phosphate buffer (log D7.4) were determined using an octanol–water system at 25 ± 0.5 °C. […] Finally, the acacetin concentrations in the octanol and water layers were determined using the LC-MS/MS method. The membrane permeability of acacetin and reference compounds (verapamil as a reference for high permeability and ranitidine as a reference for low permeability) was assessed by parallel artificial membrane permeability assay (PAMPA). […] The permeability was calculated using pION PAMPA Explorer ver. […]

[2] = Parallel artificial membrane permeability assay (PAMPA); type: in vitro ADME; settings: GIT PAMPA Double Sink
Description: Simulated intestinal fluid (SIF) was prepared by dissolving 3 mM sodium taurocholate and 0.1% (w/v) pancreatin in phosphate buffer (final pH = 7.0). The solubility of acacetin was measured by adding excessive amounts of acacetin into glass vials containing 1.5 mL of water, pH 7.4 phosphate buffer, SGF, and SIF. […] The samples were centrifuged at 16,000× g for 5 min, and the supernatant was passed through a 0.20-μm syringe filter to remove excess acacetin. Further, the concentration of acacetin in the filtrate was determined using the LC-MS/MS method. […] Finally, the acacetin concentrations in the octanol and water layers were determined using the LC-MS/MS method. […] The PAMPA was conducted using a commercially available PAMPA kit (GIT PAMPA Double Sink; pION Inc., Massachusetts, MA, USA) according to the manufacturer's protocol. The permeability was calculated using pION PAMPA Explorer ver. 3.8 software (pION Inc., Massachusetts, MA, USA).

[3] = Stability in phosphate buffers, plasma, RLM, SGF and SIF; type: physicochemical; settings: for Initially spiked amount remaining after 24 h: 10 μM
Description: The stability of acacetin was determined in several matrices such as phosphate buffers (pH 1.0, 3.0, 5.0, 7.0, 9.0, 11.0, and 13.0), plasma, RLM, SGF, and SIF. The samples spiked with acacetin (10 μM) were incubated at 37 °C, and 120 μL aliquots of the samples were collected at 0, 15, 30, 60, 120, 180, 240, 360, 420, 600, and 1440 min. The collected samples were diluted with acetonitrile to obtain a proper concentration and analyzed by the LC-MS/MS method.

[4] = Oral pharmacokinetic study in rats; type: in vivo
Description: The rats were fasted overnight before the experiment and anesthetized using an intramuscular injection of zoletil at 20 mg/kg. The femoral artery and vein were cannulated with a polyethylene tube (Clay Adams, Parsippany, NJ, USA). Acacetin (dissolved in a vehicle composed of DMSO, ethanol, and PEG400 (10:5:85, v/v/v)) was administered intravenously (10 mg/kg) or orally (100 mg/kg) to rats. Approximately 250 μL of blood was collected via the femoral artery at 0, 2, 5, 15, 30, 45, 60, 120, and 180 min after intravenous administration and at 0, 2, 5, 15, 30, 45, 60, 90, 120, and 180 min after oral administration. The cannula was flushed with heparin (20 IU/mL in saline) at each time point to prevent blood clotting. Following centrifugation of the blood sample at 8000× g and 4 °C for 2 min, 120 μL of plasma was obtained. Urine was collected at 1-h intervals in an ice-cold container over 24 h. After urine collection at 24 h, each rat was sacrificed by cervical dislocation; the entire GI tract (including its contents and feces) was excised, transferred into a beaker containing 100 mL methanol, and cut into small pieces using scissors. After manual stirring with a glass rod for 1 min, a 50-μL aliquot of the supernatant was collected. The plasma, urine (Ae24h), and GI tract (GI24h) samples were stored at −80 °C until further LC-MS/MS analysis.
A noncompartmental analysis (WinNonlin ver. 3.1; Certara USA Inc., Princeton, NJ, USA) was performed to determine the following pharmacokinetic parameters: the AUCinf, area under plasma concentration versus time curve from time zero to the last sampling time (AUClast), t1/2, total body clearance (CL), apparent volume of distribution at steady state (Vss), and absolute oral bioavailability (F). The Cmax and time to reach Cmax (Tmax) were directly obtained from the plasma concentration versus time data.

Work on `COc1ccc(-c2cc(=O)c3c(O)cc(O)cc3o2)cc1` [acacetin, Acacetin] yielded a logD ([1]; n-octanol/pH 7.4 phosphate buffer, pH 7.4, n-octanol/pH 7.4 phosphate buffer, read-out: Log D7.4) of over 3, a logP ([1]; octanol/water, n-octanol/water) of over 3 and a Papp [2] of 8.06 ± 0.91 ×10⁻⁶ cm/s. For the same compound, the “Stability (stable = more than 85% remaining)” value ([3]; SGF and SIF) was “unstable”, the “Initially spiked amount remaining after 24 h” value ([3]; SGF and SIF, 37 °C) was 27.5–62.0% and the “Stability (stable = more than 85% remaining)” value ([3]; acidic and neutral conditions (pH 1–7)) was “unstable”. The “Stability (stable = more than 85% remaining)” value ([3]; basic conditions (pH 9, 11, 13)) was “stable”, the “Remaining after 24 h” value ([3]; pH 7 phosphate buffer and simulated GI fluids (as worded in abstract)) was 27.5–62.0% and the “Initially spiked amount remaining after 24 h” value ([3]; phosphate buffers, pH range 1–7, 37 °C) was 16.1–35.9%. For the same compound, the “Stability (stable = more than 85% remaining)” value ([3]; plasma and RLM, absence of NADPH and UDPGA/alamethicin) was “stable”, the GI24h ([4]; PO 100 mg/kg, GI tract at 24 h) was 29.3 ± 22.3 % of dose and the Ae24h ([4]; PO 100 mg/kg, urine 24 h) was 0.0601 ± 0.0634 % of dose. The AUC(0-t) ([4]; rat, plasma, PO 100 mg/kg) was 12.9 ng·h/mL, the Cmax ([4]; rat, plasma, PO 100 mg/kg) was 52.1 ± 50.5 ng/mL and the Tmax ([4]; rat, plasma, PO 100 mg/kg, median (range)) was 5 min. For the same compound, the bioavailability ([4]; rat, urine, PO 100 mg/kg vs IV 10 mg/kg, from dose-normalized urinary excretion, read-out: F (absolute oral bioavailability)) was 2.34%.
